Assay results: US20170168073A1, “CHALCONE-UREA DERIVATIVES AS INSULIN SENSORS” (Agency for Science, Technology and Research, priority 2013, published 2017)

Assays:
[1] = target: insulin (Homo sapiens, UniProt P01308); test: Fluorescence response of CLU compounds to insulin; format: binding
Description: All the reagents and solvents were purchased from Aldrich, Alfa and Acros organics and used without further purification. All reactions were performed in oven-dried glassware under a positive pressure of nitrogen. Analytical TLC was carried out on Merck 60 F254 silica gel plate (0.25 mm layer thickness) and visualization was done with UV light. Column chromatography was performed on Merck 60 silica gel (230-400 mesh). NMR spectra were recorded on a Bruker Avance 300 NMR spectrometer. Chemical shifts are reported as 6 in units of parts per million (ppm) and coupling constants are reported as a J value in Hertz (Hz). Mass of all the compounds was determined by LC-MS of Agilent Technologies with an electrospray ionization source. Spectroscopic measurements were performed on a fluorometer and UV/VIS instrument, Synergy 4 of bioteck company and Gemini XS fluorescence plate reader. The slit width was 1 nm for both excitation and emission.
The present invention includes the synthesis of fluorescent chalcone-urea library (CLU), which was prepared on solid support. The CLU library was screened against four different concentrations of insulin (0.2, 0.1, 0.05 and 0.025 mg/mL) in HEPES buffer (20 mM, pH=7.4). Based on fluorescent intensity, 5 hits with more than 50-fold increase were selected (Table 2). CLU-381 was further derivatized due to the synthetic convenience to render 8 derivatives (Table 3).

[2] = tested on: serum albumin; test: Selectivity of fluorescence response to insulin over serum albumins (BSA, HSA, HSA lipid free); format: binding; conditions: over serum albumin (BSA, HSA, HSA lipid free; FIG. 1c)
Text: FIG. 1c is a graph showing the selectivity of Insulin Green to insulin over bovine serum albumin (BSA), human serum albumin (HSA) and HSA lipid free.

insulin, sequence (P01308 25-54 limits assumed, species assumed): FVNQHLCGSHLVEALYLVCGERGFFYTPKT
insulin, sequence (P01308 90-110 limits assumed, species assumed): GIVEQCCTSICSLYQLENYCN

COc1ccc(CNC(=O)Nc2ccc(C(=O)/C=C/c3ccc(N(CCO)CCO)cc3)cc2)cc1 [Insulin Green]
fluorescent increase to insulin ([1]; 200 μg/mL insulin (FIG. 1a)): 94 fold | responsiveness to insulin among the 8 CLU-381 derivatives ([1]; 8 derivatives tested against insulin): most responsive compound | selectivity for insulin over other proteins [2]: good selectivity over other proteins
